Test results reported in BindingDB's records for doi:10.1080/14756360801945598 (Quaid-I-Azam University, 2009).

Molecular target: Urease (Canavalia ensiformis, UniProt P07374)
Experiment: Inhibition Assay
Description: In vitro inhibition assay using jack bean urease.

Urease, sequence (P07374 whole entry): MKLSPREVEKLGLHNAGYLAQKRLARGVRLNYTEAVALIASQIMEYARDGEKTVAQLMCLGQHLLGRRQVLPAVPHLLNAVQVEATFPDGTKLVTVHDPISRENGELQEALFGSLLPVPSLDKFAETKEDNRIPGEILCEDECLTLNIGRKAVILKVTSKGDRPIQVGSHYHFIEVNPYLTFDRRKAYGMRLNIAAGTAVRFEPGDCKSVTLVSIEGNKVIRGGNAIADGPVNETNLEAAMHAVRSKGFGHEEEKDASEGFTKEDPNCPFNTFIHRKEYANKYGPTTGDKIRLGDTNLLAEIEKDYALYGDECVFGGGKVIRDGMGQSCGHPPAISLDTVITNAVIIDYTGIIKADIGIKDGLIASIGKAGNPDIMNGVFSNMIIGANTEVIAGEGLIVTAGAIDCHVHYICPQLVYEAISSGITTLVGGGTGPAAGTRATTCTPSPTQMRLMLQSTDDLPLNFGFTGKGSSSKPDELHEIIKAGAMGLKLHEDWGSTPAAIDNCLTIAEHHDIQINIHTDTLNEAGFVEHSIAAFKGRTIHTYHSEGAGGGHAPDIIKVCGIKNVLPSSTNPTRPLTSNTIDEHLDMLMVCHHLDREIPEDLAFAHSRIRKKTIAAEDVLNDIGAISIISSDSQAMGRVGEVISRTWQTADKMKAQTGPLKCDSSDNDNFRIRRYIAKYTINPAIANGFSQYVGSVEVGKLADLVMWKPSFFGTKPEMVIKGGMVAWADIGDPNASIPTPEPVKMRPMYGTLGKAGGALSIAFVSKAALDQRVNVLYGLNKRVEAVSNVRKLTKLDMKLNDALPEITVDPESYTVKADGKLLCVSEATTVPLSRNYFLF

Structure (SMILES) | IC50 [µM]
Oc1ccccc1C1CC(c2ccccc2)Sc2ccccc2N1 [2,3,4,5-Tetrahydro-1,5-benzothiazepine analog (2S,4R), 6] | 91.2
Oc1ccccc1C1CC(c2ccc(F)cc2)Sc2ccccc2N1 [2,3,4,5-Tetrahydro-1,5-benzothiazepine analog (2S,4R), 7] | 93.7
c1ccc(C2=Nc3ccccc3SC(c3ccccc3)C2)cc1 (stereo unspecified) [Dihydro-1,5-benzothiazepine analog, 2] | 26.3
Cc1ccc(C2CC(c3ccccc3)=Nc3ccccc3S2)cc1 (stereo unspecified) [Dihydro-1,5-benzothiazepine analog, 3] | 24.6
O=COc1ccc(C2CC(c3ccccc3O)=Nc3ccccc3S2)cc1OC=O (stereo unspecified) [Dihydro-1,5-benzothiazepine analog, 4] | 19.1
O=[N+]([O-])c1ccc(C2CC(c3ccccc3)=Nc3ccccc3S2)cc1 (stereo unspecified) [Dihydro-1,5-benzothiazepine analog, 5] | 36.7
